Biological target: T1, human muscarinic M3 receptor (Homo sapiens, UniProt P20309)
T1 construct: expressed in transfected cells
Assay: hM3 β-Lac potency assay (NFAT-Betalactamase reporter in CHO-K1 cells)
Details: CHO cells recombinantly expressing human M3, NFAT β-lactamase reporter; inhibition of 80 nM carbamyl choline signal, 4 h; IC50 converted to Ki by Cheng-Prusoff; read-out: Cell based β-lactamase M3 Ki
Protocol: M3 potency was determined in CHO-K1 cells transfected with the NFAT-Betalactamase gene. CHO (Chinese Hamster Ovary) cells recombinantly expressing the human muscarinic M3 receptor were transfected with the NFAT_β-Lac_Zeo plasmid. Cells were grown in DMEM with Glutamax-1, supplemented with 25 mM HEPES(Life Technologies 32430-027), containing 10% FCS (Foetal Calf Serum; Sigma F-7524), […] Sodium pyruvate (Sigma S-8636), NEM (non-Essential Amino Acids; Invitrogen 11140-035) and 200 μg/ml Zeocin (Invitrogen R250-01).
Cells were harvested for assay when they reached 80-90% confluency using enzyme free cell Dissociation Solution (Life technologies 13151-014) incubated with the cells for 5 min at 37° C. in an atmosphere containing 5% CO2. Detached cells were collected in warmed growth media and centrifuged at 2000 rpm for 10 min, washed in PBS (Phosphate Buffered Saline; Life Technologies 14190-094) and centrifuged again as just described. The cells were re-suspended at 2×10^5 cells/ml in growth medium (composition as described above). 20 μl of this cell suspension was added to each well of a 384 well black clear bottomed plate (Greiner Bio One 781091-PFI). The assay buffer used was PBS supplemented with 0.05% Pluronic F-127 (Sigma 9003-11-6) and 2.5% DMSO. Muscarinic M3 receptor signalling was stimulated using 80 nM carbamyl choline (Aldrich N240-9) incubated with the cells for 4 h at 37° C./5% CO2 and monitored at the end of the incubation period using a Tecan SpectraFluor+ plate reader (λ—excitation 405 nm, emission 450 nm and 503 nm). M3 receptor antagonists under test were added to the assay at the beginning of the 4 h incubation period and compound activity measured as the concentration dependent inhibition of the carbamyl choline induced signal. Inhibition curves were plotted and IC50 values generated using a 4-parameter sigmoid fit and converted to Ki values using the Cheng-Prusoff correction and the KD value for carbamyl choline in the assay.

T1 sequence (P20309 whole entry): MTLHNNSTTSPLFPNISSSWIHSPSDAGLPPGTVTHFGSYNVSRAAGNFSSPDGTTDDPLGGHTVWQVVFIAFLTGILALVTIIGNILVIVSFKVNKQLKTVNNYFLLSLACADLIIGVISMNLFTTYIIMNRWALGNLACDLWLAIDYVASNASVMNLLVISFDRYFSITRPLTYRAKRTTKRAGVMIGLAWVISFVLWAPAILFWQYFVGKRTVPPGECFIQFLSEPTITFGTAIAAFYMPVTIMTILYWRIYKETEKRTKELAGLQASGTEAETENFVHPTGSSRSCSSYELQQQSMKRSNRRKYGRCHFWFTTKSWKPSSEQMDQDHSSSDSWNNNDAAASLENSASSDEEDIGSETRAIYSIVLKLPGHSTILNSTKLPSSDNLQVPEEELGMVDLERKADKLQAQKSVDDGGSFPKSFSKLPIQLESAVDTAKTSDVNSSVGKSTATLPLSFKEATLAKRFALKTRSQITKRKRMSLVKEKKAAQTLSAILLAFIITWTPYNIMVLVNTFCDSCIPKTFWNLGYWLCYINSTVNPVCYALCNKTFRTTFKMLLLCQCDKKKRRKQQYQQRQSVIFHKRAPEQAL

**Q.** `CC(C)N(CC[C@H](c1ccccc1)c1cc(CCOc2ccc(CCNC(=O)c3ccc(O)c(Cl)c3)cc2)ccc1O)C(C)C` [Example 1, 3-Chloro-N-[2-(4-{2-[3-((1R)-3-diisopropylamino-1-phenyl-propyl)-4-hydroxy-phenyl]-ethoxy}-phenyl)-ethyl]-4-hydroxy-benzamide] was tested. Which Ki did it give?
**A.** 0.512 nM

**Q.** With `CC(C)N(CC[C@H](c1ccccc1)c1cc(CCOc2ccc(CCNC(=O)Cc3ccc(O)c(Cl)c3)cc2)ccc1O)C(C)C` [Example 2, 2-(3-Chloro-4-hydroxy-phenyl)-N-[2-(4-{2-[3-((1R)-3-diisopropylamino-1-phenyl-propyl)-4-hydroxy-phenyl]-ethoxy}-phenyl)-ethyl]-acetamide] as the compound, how does the Ki read?
**A.** 1.7 nM

**Q.** With `CC(C)N(CC[C@H](c1ccccc1)c1cc(CCOc2ccc(CCNC(=O)C3CCCC3)cc2)ccc1O)C(C)C` [Example 3, Cyclopentanecarboxylic acid [2-(4-{2-[3-((1R)-3-diisopropylamino-1-phenyl-propyl)-4-hydroxy-phenyl]-ethoxy}-phenyl)-ethyl]-amide] as the compound, how does the Ki read?
**A.** 3.59 nM

**Q.** For `CC(C)N(CC[C@H](c1ccccc1)c1cc(CCOc2ccc(CCNC(=O)CC3CC3)cc2)ccc1O)C(C)C` [Example 4], which Ki is on record?
**A.** 1.19 nM

**Q.** For `CC(C)N(CC[C@H](c1ccccc1)c1cc(CCOc2ccc(CCNC(=O)c3ccc(O)c(F)c3)cc2)ccc1O)C(C)C` [Example 5, N-[2-(4-{2-[3-((1R)-3-Diisopropylamino-1-phenyl-propyl)-4-hydroxy-phenyl]-ethoxy}-phenyl)-ethyl]-3-fluoro-4-hydroxy-benzamide], which Ki is on record?
**A.** 5.36 nM

**Q.** Which Ki does the source give for `CC(C)N(CC[C@H](c1ccccc1)c1cc(CCOc2ccc(CCNC(=O)[C@]34C[C@H]5C[C@H](C[C@H](C5)C3)C4)cc2)ccc1O)C(C)C` [Example 6, (3S,5S,7S)-N-{2-[4-(2-{3-[(1R)-3-(diisopropylamino)-1-phenylpropyl]-4-hydroxyphenyl}ethoxy)phenyl]ethyl}adamantane-1-carboxamide] here?
**A.** 4.99 nM

**Q.** `CC(C)N(CC[C@H](c1ccccc1)c1cc(CCOc2ccc(CCNC(=O)c3ccc(O)cc3Cl)cc2)ccc1O)C(C)C` [Example 7, 2-Chloro-N-[2-(4-{2-[3-((1R)-3-diisopropylamino-1-phenyl-propyl)-4-hydroxy-phenyl]-ethoxy}-phenyl)-ethyl]-4-hydroxy-benzamide] was tested. Which Ki did it give?
**A.** 0.727 nM

**Q.** For `CC(C)N(CC[C@H](c1ccccc1)c1cc(CCOc2ccc(CCN(C)C)cc2)ccc1O)C(C)C` [Example 8, 2-((1R)-3-Diisopropylamino-1-phenyl-propyl)-4-{2-[4-(2-dimethylamino-ethyl)-phenoxy]-ethyl}-phenol], which Ki is on record?
**A.** 1.4 nM

**Q.** Which Ki does the source give for `CC(C)N(CC[C@H](c1ccccc1)c1cc(CCOc2ccc(CCNCc3ccccc3)cc2)ccc1O)C(C)C` [Example 9, 4-{2-[4-(2-Benzylamino-ethyl)-phenoxy]-ethyl}-2-((1R)-3-diisopropylamino-1-phenyl-propyl)-phenol] here?
**A.** 0.785 nM

**Q.** `CC(C)N(CC[C@H](c1ccccc1)c1cc(CCOc2ccc(CCNCc3cccc(Cl)c3)cc2)ccc1O)C(C)C` [Example 10, 4-(2-{4-[2-(3-Chloro-benzylamino)-ethyl]-phenoxy}-ethyl)-2-((1R)-3-diisopropylamino-1-phenyl-propyl)-phenol] was tested. Which Ki did it give?
**A.** 7.73 nM

**Q.** For `CC(C)N(CC[C@H](c1ccccc1)c1cc(CCOc2ccc(CCNC3CCCCC3)cc2)ccc1O)C(C)C` [Example 11, 4-{2-[4-(2-Cyclohexylamino-ethyl)-phenoxy]-ethyl}-2-((1R)-3-diisopropylamino-1-phenyl-propyl)-phenol], which Ki is on record?
**A.** 6.06 nM

**Q.** With `CC(C)N(CC[C@H](c1ccccc1)c1cc(CCOc2ccc(CCNCc3ccc(O)c(Cl)c3)cc2)ccc1O)C(C)C` [Example 12, 2-chloro-4-[({2-[4-(2-{3-[(1R)-3-(diisopropylamino)-1-phenylpropyl]-4-hydroxyphenyl}ethoxy)phenyl]ethyl}amino)methyl]phenol] as the compound, how does the Ki read?
**A.** > 12.5 nM

**Q.** For `CC(C)N(CC[C@H](c1ccccc1)c1cc(CCOc2ccc(CCNCc3ccc(O)c(F)c3)cc2)ccc1O)C(C)C` [Example 13, 2-[(1R)-3-(diisopropylamino)-1-phenylpropyl]-4-[2-(4-{2-[(3-fluoro-4-hydroxybenzyl)amino]ethyl}phenoxy)ethyl]phenol], which Ki is on record?
**A.** > 12.1 nM

**Q.** For `CC(C)N(CC[C@H](c1ccccc1)c1cc(CCOc2ccc(CCNCc3cccc(F)c3O)cc2)ccc1O)C(C)C` [Example 14, 2-[(1R)-3-(diisopropylamino)-1-phenylpropyl]-4-[2-(4-{2-[(3-fluoro-2-hydroxybenzyl)amino]ethyl}phenoxy)ethyl]phenol], which Ki is on record?
**A.** 1.4 nM

**Q.** `CC(C)N(CC[C@H](c1ccccc1)c1cc(CCOc2ccc(CCNCc3cc(F)c(O)c(F)c3)cc2)ccc1O)C(C)C` [Example 15, 4-{[2-(4-{2-[3-((1R)-3-Diisopropylamino-1-phenyl-propyl)-4-hydroxy-phenyl]-ethoxy}-phenyl)-ethylamino]-methyl}-2,6-difluoro-phenol] was tested. Which Ki did it give?
**A.** 1.55 nM

**Q.** With `CC(C)N(CC[C@H](c1ccccc1)c1cc(CCOc2ccc(CCNCc3cc(Cl)c(O)c(Cl)c3)cc2)ccc1O)C(C)C` [Example 16, 2,6-Dichloro-4-{[2-(4-{2-[3-((1R)-3-diisopropylamino-1-phenyl-propyl)-4-hydroxy-phenyl]-ethoxy}-phenyl)-ethylamino]-methyl}-phenol] as the compound, how does the Ki read?
**A.** > 6.87 nM

**Q.** For `CC(C)N(CC[C@H](c1ccccc1)c1cc(CCOc2ccc(CCNCc3cccc(O)c3Cl)cc2)ccc1O)C(C)C` [Example 17, 2-chloro-3-[({2-[4-(2-{3-[(1R)-3-(diisopropylamino)-1-phenylpropyl]-4-hydroxyphenyl}ethoxy)phenyl]ethyl}amino)methyl]phenol], which Ki is on record?
**A.** 1 nM

**Q.** For `CC(C)N(CC[C@H](c1ccccc1)c1cc(CCOc2ccc(CCNCc3cccc(O)c3)cc2)ccc1O)C(C)C` [Example 18, 2-((1R)-3-Diisopropylamino-1-phenyl-propyl)-4-(2-{4-[2-(3-hydroxy-benzylamino)-ethyl]-phenoxy}-ethyl)-phenol], which Ki is on record?
**A.** > 10.4 nM

**Q.** With `CC(C)N(CC[C@H](c1ccccc1)c1cc(CCOc2ccc(CCNCc3cccc(O)c3F)cc2)ccc1O)C(C)C` [Example 19, 3-[({2-[4-(2-{3-[(1R)-3-(diisopropylamino)-1-phenylpropyl]-4-hydroxyphenyl}ethoxy)phenyl]ethyl}amino)methyl]-2-fluorophenol] as the compound, how does the Ki read?
**A.** 2.69 nM

**Q.** How did the Ki turn out when `CC(C)N(CC[C@H](c1ccccc1)c1cc(CCOc2ccc(CCNCc3cc(F)c(O)c(Cl)c3)cc2)ccc1O)C(C)C` [Example 20, 2-Chloro-4-{[2-(4-{2-[3-((1R)-3-diisopropylamino-1-phenyl-propyl)-4-hydroxy-phenyl]-ethoxy}-phenyl)-ethylamino]-methyl}-6-fluoro-phenol] was run?
**A.** > 5.89 nM

**Q.** For `CC(C)N(CC[C@H](c1ccccc1)c1cc(CCOc2ccc(CCNCc3cc(O)cc(O)c3)cc2)ccc1O)C(C)C` [Example 21, 5-{[2-(4-{2-[3-((1R)-3-Diisopropylamino-1-phenyl-propyl)-4-hydroxy-phenyl]-ethoxy}-phenyl)-ethylamino]-methyl}-benzene-1.3-diol], which Ki is on record?
**A.** > 5.75 nM

**Q.** With `CC(C)N(CC[C@H](c1ccccc1)c1cc(CCOc2ccc(CCNCc3cc(F)cc(F)c3O)cc2)ccc1O)C(C)C` [Example 22, 2-{[2-(4-{2-[3-((1R)-3-Diisopropylamino-1-phenyl-propyl)-4-hydroxy-phenyl]-ethoxy}-phenyl)-ethylamino]-methyl}-4,6-difluoro-phenol] as the compound, how does the Ki read?
**A.** 7.11 nM

**Q.** How did the Ki turn out when `CC(C)N(CC[C@H](c1ccccc1)c1cc(CCOc2ccc(CCNCc3ccc(F)c(O)c3)cc2)ccc1O)C(C)C` [Example 23, 2-[(1R)-3-(diisopropylamino)-1-phenylpropyl]-4-[2-(4-{2-[(4-fluoro-3-hydroxybenzyl)amino]ethyl}phenoxy)ethyl]phenol] was run?
**A.** > 6.66 nM

**Q.** `CC(C)N(CC[C@H](c1ccccc1)c1cc(CCOc2ccc(CCNC(=O)c3cc(Cl)c(O)c(Cl)c3)cc2)ccc1O)C(C)C` [Example 24, 3,5-Dichloro-N-[2-(4-{2-[3-((1R)-3-diisopropylamino-1-phenyl-propyl)-4-hydroxy-phenyl]-ethoxy}-phenyl)-ethyl]-4-hydroxy-benzamide] was tested. Which Ki did it give?
**A.** 2.15 nM

**Q.** With `CC(C)N(CC[C@H](c1ccccc1)c1cc(CCOc2ccc(CCNC(=O)c3ccc(F)c(O)c3)cc2)ccc1O)C(C)C` [Example 25, 4-Fluoro-N-[2-(4-{2-[3-((1R)-3-diisopropylamino-1-phenyl-propyl)-4-hydroxy-phenyl]-ethoxy}-phenyl)-ethyl]-3-hydroxy-benzamide] as the compound, how does the Ki read?
**A.** 0.751 nM

**Q.** Which Ki does the source give for `CC(C)N(CC[C@H](c1ccccc1)c1cc(CCOc2ccc(CCNC(=O)c3ccc(O)cc3)cc2)ccc1O)C(C)C` [Example 26, 4-Hydroxy-N-[2-(4-{2-[3-((1R)-3-diisopropylamino-1-phenyl-propyl)-4-hydroxy-phenyl]-ethoxy}-phenyl)-ethyl]-benzamide] here?
**A.** 0.705 nM
